Laboratory results as given in PubChem BioAssay (NCI).
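Dose response: 5 concentrations. Exposure: 48 h. Format: 96-well plates. Endpoint: linear interpolation; highest concentration if not reached. The concentration for full growth arrest is given as TGI.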

What was measured:
Experiment in all cases: NCI anticancer screen, dose series, 48 h
[1] = test system: BT-549 breast
[2] = test system: A498 renal
[3] = test system: NCI-H23 lung
[4] = test system: HCT-15 colon
[5] = test system: MALME-3M melanoma
[6] = test system: UACC-62 melanoma
[7] = test system: HOP-92 NSCLC
[8] = test system: CAKI-1 renal
[9] = test system: NCI-H226 lung
[10] = test system: A549 NSCLC
[11] = test system: SNB-75 CNS
[12] = test system: MCF7 breast
[13] = test system: ACHN renal
[14] = test system: DU-145 prostate
[15] = test system: OVCAR-4 ovarian
[16] = test system: HT29 colon
[17] = test system: NCI/ADR-RES ovarian
[18] = test system: SK-MEL-28 melanoma
[19] = test system: HL-60(TB) leukemia
[20] = test system: UACC-257 melanoma
[21] = test system: MDA-MB-435
[22] = test system: MOLT-4 leukemia
[23] = test system: NCI-H460 lung
[24] = test system: COLO 205 colon
[25] = test system: SF-539 CNS
[26] = test system: RPMI-8226 leukemia
[27] = test system: SF-268 CNS
[28] = test system: RXF 393 renal
[29] = test system: SNB-19 CNS
[30] = test system: MDA-N
[31] = test system: SF-295 CNS
[32] = test system: HCC-2998 colon
[33] = test system: U251 CNS
[34] = test system: SR leukemia
[35] = test system: LOX IMVI melanoma
[36] = test system: OVCAR-3 ovarian
[37] = test system: MDA-MB-231 breast
[38] = test system: 786-0 renal
[39] = test system: IGROV1 ovarian
[40] = test system: PC-3 prostate
[41] = test system: SK-MEL-2 melanoma
[42] = test system: K-562 leukemia
[43] = test system: HS 578T breast
[44] = test system: SW-620 colon
[45] = test system: T-47D breast
[46] = test system: CCRF-CEM leukemia
[47] = test system: HCT-116 colon
[48] = test system: OVCAR-8 ovarian
[49] = test system: KM12 colon
[50] = test system: EKVX NSCLC
[51] = test system: M14 melanoma
[52] = test system: OVCAR-5 ovarian
[53] = test system: TK-10 renal
[54] = test system: UO-31 renal
[55] = test system: SK-OV-3 ovarian
[56] = test system: SK-MEL-5 melanoma
[57] = test system: HOP-62 NSCLC
[58] = test system: NCI-H522 lung
[59] = test system: SN12C renal

Compound: CN(C(=O)CCC(=O)O)c1ccccc1C(=O)O
- TGI [1]: > 100 µM
- TGI [2]: > 100 µM
- TGI [3]: > 100 µM
- TGI [4]: > 100 µM
- TGI [5]: > 100 µM
- TGI [6]: > 100 µM
- TGI [7]: > 100 µM
- TGI [8]: > 100 µM
- TGI [9]: > 100 µM
- TGI [10]: > 100 µM
- TGI [11]: > 100 µM
- TGI [12]: > 100 µM
- TGI [13]: > 100 µM
- TGI [14]: > 100 µM
- TGI [15]: > 100 µM
- TGI [16]: > 100 µM
- TGI [17]: > 100 µM
- TGI [18]: > 100 µM
- TGI [19]: > 100 µM
- TGI [20]: > 100 µM
- TGI [21]: > 100 µM
- TGI [22]: > 100 µM
- TGI [23]: > 100 µM
- TGI [24]: > 100 µM
- TGI [25]: > 100 µM
- TGI [26]: > 100 µM
- TGI [27]: > 100 µM
- TGI [28]: > 100 µM
- TGI [29]: > 100 µM
- TGI [30]: > 100 µM
- TGI [31]: > 100 µM
- TGI [32]: > 100 µM
- TGI [33]: > 100 µM
- TGI [34]: > 100 µM
- TGI [35]: > 100 µM
- TGI [36]: > 100 µM
- TGI [37]: > 100 µM
- TGI [38]: > 100 µM
- TGI [39]: > 100 µM
- TGI [40]: > 100 µM
- TGI [41]: > 100 µM
- TGI [42]: > 100 µM
- TGI [43]: > 100 µM
- TGI [44]: > 100 µM
- TGI [45]: > 100 µM
- TGI [46]: > 100 µM
- TGI [47]: > 100 µM
- TGI [48]: > 100 µM
- TGI [49]: > 100 µM
- TGI [50]: > 100 µM
- TGI [51]: > 100 µM
- TGI [52]: > 100 µM
- TGI [53]: > 100 µM
- TGI [54]: > 100 µM
- TGI [55]: > 100 µM
- TGI [56]: > 100 µM

Compound: COc1cc([C@@H]2C3C(=O)c4ccccc4C3[C@@H](c3cc(OC)c(OC)c(OC)c3)C23Cc2ccccc2C3=O)cc(OC)c1OC (stereo not given in full)
- TGI [1]: > 100 µM
- TGI [2]: > 100 µM
- TGI [3]: > 100 µM
- TGI [4]: > 100 µM
- TGI [5]: > 100 µM
- TGI [7]: > 100 µM
- TGI [8]: 7.85 µM
- TGI [9]: > 100 µM
- TGI [10]: > 100 µM
- TGI [57]: > 100 µM
- TGI [11]: > 100 µM
- TGI [12]: > 100 µM
- TGI [13]: > 100 µM
- TGI [14]: > 100 µM
- TGI [15]: > 100 µM
- TGI [16]: > 100 µM
- TGI [17]: > 100 µM
- TGI [18]: > 100 µM
- TGI [19]: > 100 µM
- TGI [20]: > 100 µM
- TGI [21]: > 100 µM
- TGI [22]: > 100 µM
- TGI [23]: > 100 µM
- TGI [24]: > 100 µM
- TGI [25]: > 100 µM
- TGI [26]: > 100 µM
- TGI [27]: > 100 µM
- TGI [28]: > 100 µM
- TGI [29]: > 100 µM
- TGI [30]: > 100 µM
- TGI [31]: > 100 µM
- TGI [32]: > 100 µM
- TGI [33]: > 100 µM
- TGI [34]: > 100 µM
- TGI [35]: > 100 µM
- TGI [36]: > 100 µM
- TGI [37]: > 100 µM
- TGI [38]: > 100 µM
- TGI [39]: > 100 µM
- TGI [40]: > 100 µM
- TGI [42]: > 100 µM
- TGI [43]: > 100 µM
- TGI [44]: > 100 µM
- TGI [58]: > 100 µM
- TGI [45]: > 100 µM
- TGI [46]: > 100 µM
- TGI [47]: > 100 µM
- TGI [48]: > 100 µM
- TGI [49]: > 100 µM
- TGI [50]: > 100 µM
- TGI [59]: > 100 µM
- TGI [51]: > 100 µM
- TGI [52]: > 100 µM
- TGI [53]: > 100 µM
- TGI [54]: > 100 µM
- TGI [55]: > 100 µM
- TGI [56]: > 100 µM

Compound: O=C1O/C(=C\c2ccc(O)c(Br)c2)C(c2ccc(O)c(Cl)c2)=C1Br
- TGI [1]: 63.1 µM
- TGI [2]: 37.3 µM
- TGI [3]: 54.1 µM
- TGI [4]: 25.3 µM
- TGI [5]: 37.3 µM
- TGI [6]: 31.6 µM
- TGI [7]: 35.7 µM
- TGI [8]: 75.2 µM
- TGI [10]: > 100 µM
- TGI [57]: 40.9 µM
- TGI [12]: 34.6 µM
- TGI [13]: 33.2 µM
- TGI [14]: 43 µM
- TGI [15]: 25.8 µM
- TGI [16]: 25.5 µM
- TGI [17]: 75.7 µM
- TGI [18]: 32 µM
- TGI [19]: > 100 µM
- TGI [20]: 33.3 µM
- TGI [21]: 46.5 µM
- TGI [22]: > 100 µM
- TGI [23]: 48.4 µM
- TGI [24]: 32 µM
- TGI [25]: 44 µM
- TGI [26]: 38.6 µM
- TGI [27]: 33.7 µM
- TGI [28]: 40.9 µM
- TGI [29]: 66.5 µM
- TGI [30]: 64.9 µM
- TGI [31]: 30.4 µM
- TGI [32]: 16.7 µM
- TGI [33]: 29.8 µM
- TGI [34]: 28.1 µM
- TGI [35]: 71.9 µM
- TGI [36]: 33.7 µM
- TGI [37]: > 100 µM
- TGI [38]: 40.2 µM
- TGI [39]: 47.2 µM
- TGI [40]: 32.7 µM
- TGI [41]: 39.2 µM
- TGI [42]: 58.5 µM
- TGI [43]: 70.9 µM
- TGI [44]: 34.1 µM
- TGI [58]: 28.6 µM
- TGI [45]: 47 µM
- TGI [46]: 51.1 µM
- TGI [47]: 26.5 µM
- TGI [48]: 90 µM
- TGI [49]: 31.2 µM
- TGI [50]: 49.3 µM
- TGI [59]: 86.4 µM
- TGI [51]: 36.5 µM
- TGI [52]: 33.4 µM
- TGI [53]: 48.3 µM
- TGI [54]: 77.4 µM
- TGI [55]: 40.9 µM
- TGI [56]: 29.8 µM
